System: yeast genes (level of expressed mRNA)
Assay: DNA chip analysis of expressed mRNA of yeast genes after 2 h culture with a toxic chemical substance
Format: cell-based, Saccharomyces cerevisiae S288C
Protocol: Yeast (Saccharomyces cerevtisiae S288C (α SUC2mal mel gap2 CUP1)) were cultured at 25° C. on YPD medium (yeast extract 1%, polypepton 2%, glucose 2%). One of toxic chemical substances was added to the cell at logarithmic growth phase, and the cell was further cultured for two hours. Cell was cultured without any chemical substance in the same condition, and was used as control. Concentrations of the chemical substances were defined to inhibit the growth of the yeast but not lead to death.
After the completion of cultivation, the culture was centrifuged to collect the cells. To the cells, sodium acetate buffer (50 mM sodium acetate, 10 mM EDTA, 1% SDS) was added, and the mixture was shaken at 65° C. for five minutes, followed by returning to room temperature, and obtaining the supernatant, which procedure was repeated two times. To the supernatant, ½ amount of a solution of phenol/chloroform was added, and the mixture was centrifuged to give a supernatant, which was added with an equal amount of chloroform, and the mixture was centrifuged to give a supernatant. To the supernatant, an equal amount of isopropanol containing 0.3 M sodium acetate was added, and the mixture was allowed to stand at room temperature for 30 minutes, after which the mixture was centrifuged to give a sediment of the whole RNAs. Seventy % ethanol was added to the sediment, and the mixture was again centrifuged to give a sediment, which was then dried and dissolved in water. mRNA was isolated from the whole RNAs as followings. In view of the fact that a poly A chain is attached to the 3′ terminus of mRNA, a polynucleotide having a poly T structure which was immobilized on the surface of latex beads was used to trap the mRNA, and then the mRNA was washed and eluted with spine column (Oligotex-dT30<Super>mRNA Purification Kit, Takara). Reverse transcription of the mRNA was conducted with a reverse transcriptase (Super Script II Reverse Transcriptase; catalogue No. 18064-014, GibcoBRL) using fluorescence-labeled nucleotides to give cDNAs that were introduced with Cy3-dUTP or Cy5-dUTP during the reverse transcription.
The labeled cDNAs were dissolved in TE buffer (10 mM Tris-HCl/1 mM EDTA, pH8.0), and the solution was dropped on the DNA chip containing the whole genes of yeast (DNA Chip Research Inc. Japan) so that the cDNAs were hybridized on the DNA chip at 65° C. for over 12 hours. The fluoresces intensity of the DNA chip was read with a scanner, and the ratio relative to the fluorescence intensity resulting from the absence of chemical substance was estimated as the following, which is shown in Tables 1 to 9: [formula]
In the Tables, “Intensity” indicated in the rightmost column is a value of the level of expressed mRNA of each gene in control cells as divided by the average level of the expressions of the whole genes.

N#Cc1c(Cl)c(Cl)c(Cl)c(C#N)c1Cl [(9), 2,4,5,6-tetrachloro-1,3-benzenedicarbonitrile]
The level of expressed mRNA in the presence of chemical substance/The level of expressed mRNA in the absence of chemical substance (yeast gene YAR010C): 1.2 | The level of expressed mRNA in the presence of chemical substance/The level of expressed mRNA in the absence of chemical substance (yeast gene YBL005W-A): 0.8 | The level of expressed mRNA in the presence of chemical substance/The level of expressed mRNA in the absence of chemical substance (yeast gene YBL041W): 2.8 | The level of expressed mRNA in the presence of chemical substance/The level of expressed mRNA in the absence of chemical substance (yeast gene YBL043W): 0.5 | The level of expressed mRNA in the presence of chemical substance/The level of expressed mRNA in the absence of chemical substance (yeast gene YBL078C): 12.3 | The level of expressed mRNA in the presence of chemical substance/The level of expressed mRNA in the absence of chemical substance (yeast gene YBR214W): 2.2 | The level of expressed mRNA in the presence of chemical substance/The level of expressed mRNA in the absence of chemical substance (yeast gene YCL020W): 0.9 | The level of expressed mRNA in the presence of chemical substance/The level of expressed mRNA in the absence of chemical substance (yeast gene YCL027W): 0.7 | The level of expressed mRNA in the presence of chemical substance/The level of expressed mRNA in the absence of chemical substance (yeast gene YCR004C): 4.7 | The level of expressed mRNA in the presence of chemical substance/The level of expressed mRNA in the absence of chemical substance (yeast gene YCR071C): 0.6 | The level of expressed mRNA in the presence of chemical substance/The level of expressed mRNA in the absence of chemical substance (yeast gene YCR088W): 0.8 | The level of expressed mRNA in the presence of chemical substance/The level of expressed mRNA in the absence of chemical substance (yeast gene YDL008W): 2.3 | The level of expressed mRNA in the presence of chemical substance/The level of expressed mRNA in the absence of chemical substance (yeast gene YDL238C): 1.7 | The level of expressed mRNA in the presence of chemical substance/The level of expressed mRNA in the absence of chemical substance (yeast gene YDR055W): 0.8 | The level of expressed mRNA in the presence of chemical substance/The level of expressed mRNA in the absence of chemical substance (yeast gene YDR084C): 0.6 | The level of expressed mRNA in the presence of chemical substance/The level of expressed mRNA in the absence of chemical substance (yeast gene YDR085C): 0.4 | The level of expressed mRNA in the presence of chemical substance/The level of expressed mRNA in the absence of chemical substance (yeast gene YDR104C): 2.8 | The level of expressed mRNA in the presence of chemical substance/The level of expressed mRNA in the absence of chemical substance (yeast gene YDR115W): 1.1 | The level of expressed mRNA in the presence of chemical substance/The level of expressed mRNA in the absence of chemical substance (yeast gene YDR259C): 1.0 | The level of expressed mRNA in the presence of chemical substance/The level of expressed mRNA in the absence of chemical substance (yeast gene YDR315C): 1.1 | The level of expressed mRNA in the presence of chemical substance/The level of expressed mRNA in the absence of chemical substance (yeast gene YDR358W): 2.9 | The level of expressed mRNA in the presence of chemical substance/The level of expressed mRNA in the absence of chemical substance (yeast gene YDR388W): 1.4 | The level of expressed mRNA in the presence of chemical substance/The level of expressed mRNA in the absence of chemical substance (yeast gene YDR432W): 0.7 | The level of expressed mRNA in the presence of chemical substance/The level of expressed mRNA in the absence of chemical substance (yeast gene YDR481C): 1.9 | The level of expressed mRNA in the presence of chemical substance/The level of expressed mRNA in the absence of chemical substance (yeast gene YDR510W): 2.7 | The level of expressed mRNA in the presence of chemical substance/The level of expressed mRNA in the absence of chemical substance (yeast gene YEL042W): 0.2 | The level of expressed mRNA in the presence of chemical substance/The level of expressed mRNA in the absence of chemical substance (yeast gene YEL066W): 1.3 | The level of expressed mRNA in the presence of chemical substance/The level of expressed mRNA in the absence of chemical substance (yeast gene YER039C): 1.2 | The level of expressed mRNA in the presence of chemical substance/The level of expressed mRNA in the absence of chemical substance (yeast gene YER107C): 0.4 | The level of expressed mRNA in the presence of chemical substance/The level of expressed mRNA in the absence of chemical substance (yeast gene YER130C): 0.5 | The level of expressed mRNA in the presence of chemical substance/The level of expressed mRNA in the absence of chemical substance (yeast gene YFL028C): 2.7 | The level of expressed mRNA in the presence of chemical substance/The level of expressed mRNA in the absence of chemical substance (yeast gene YFL043C): 2.2 | The level of expressed mRNA in the presence of chemical substance/The level of expressed mRNA in the absence of chemical substance (yeast gene YGL229C): 1.8 | The level of expressed mRNA in the presence of chemical substance/The level of expressed mRNA in the absence of chemical substance (yeast gene YGR136W): 2.1 | The level of expressed mRNA in the presence of chemical substance/The level of expressed mRNA in the absence of chemical substance (yeast gene YGR189C): 0.3 | The level of expressed mRNA in the presence of chemical substance/The level of expressed mRNA in the absence of chemical substance (yeast gene YGR213C): 7.5 | The level of expressed mRNA in the presence of chemical substance/The level of expressed mRNA in the absence of chemical substance (yeast gene YGR257C): 1.5 | The level of expressed mRNA in the presence of chemical substance/The level of expressed mRNA in the absence of chemical substance (yeast gene YHR004C): 1.1 | The level of expressed mRNA in the presence of chemical substance/The level of expressed mRNA in the absence of chemical substance (yeast gene YHR071W): 1.0 | The level of expressed mRNA in the presence of chemical substance/The level of expressed mRNA in the absence of chemical substance (yeast gene YHR139C): 107.2 | The level of expressed mRNA in the presence of chemical substance/The level of expressed mRNA in the absence of chemical substance (yeast gene YHR142W): 0.4 | The level of expressed mRNA in the presence of chemical substance/The level of expressed mRNA in the absence of chemical substance (yeast gene YIL123W): 0.1 | The level of expressed mRNA in the presence of chemical substance/The level of expressed mRNA in the absence of chemical substance (yeast gene YIL140W): 0.7 | The level of expressed mRNA in the presence of chemical substance/The level of expressed mRNA in the absence of chemical substance (yeast gene YJL073W): 1.7 | The level of expressed mRNA in the presence of chemical substance/The level of expressed mRNA in the absence of chemical substance (yeast gene YJL089W): 1.6 | The level of expressed mRNA in the presence of chemical substance/The level of expressed mRNA in the absence of chemical substance (yeast gene YJL116C): 2.4 | The level of expressed mRNA in the presence of chemical substance/The level of expressed mRNA in the absence of chemical substance (yeast gene YJR004C): 0.3 | The level of expressed mRNA in the presence of chemical substance/The level of expressed mRNA in the absence of chemical substance (yeast gene YJR086W): 1.4 | The level of expressed mRNA in the presence of chemical substance/The level of expressed mRNA in the absence of chemical substance (yeast gene YKL008C): 0.3 | The level of expressed mRNA in the presence of chemical substance/The level of expressed mRNA in the absence of chemical substance (yeast gene YKL013C): 1.5
